ChEMBL document CHEMBL3627690, “Scaffold-Hopping and Structure-Based Discovery of Potent, Selective, And Brain Penetrant N-(1H-Pyrazol-3-yl)pyridin-2-amine Inhibitors of Dual Leucine Zipper Kinase (DLK, MAP3K12)” (J Med Chem, 2015)

What was measured:
[1] = molecular target: T1, Mitogen-activated protein kinase kinase kinase 12 (Homo sapiens, UniProt Q12852); assay: Inhibition of N-terminally GST- tagged human DLK catalytic domain (1 to 520 amino acids) using N-terminally HIS-tagged MKK4 K131M as substrate incubated for 60 mins by TR-FRET assay
T1 sequence (Q12852 whole entry): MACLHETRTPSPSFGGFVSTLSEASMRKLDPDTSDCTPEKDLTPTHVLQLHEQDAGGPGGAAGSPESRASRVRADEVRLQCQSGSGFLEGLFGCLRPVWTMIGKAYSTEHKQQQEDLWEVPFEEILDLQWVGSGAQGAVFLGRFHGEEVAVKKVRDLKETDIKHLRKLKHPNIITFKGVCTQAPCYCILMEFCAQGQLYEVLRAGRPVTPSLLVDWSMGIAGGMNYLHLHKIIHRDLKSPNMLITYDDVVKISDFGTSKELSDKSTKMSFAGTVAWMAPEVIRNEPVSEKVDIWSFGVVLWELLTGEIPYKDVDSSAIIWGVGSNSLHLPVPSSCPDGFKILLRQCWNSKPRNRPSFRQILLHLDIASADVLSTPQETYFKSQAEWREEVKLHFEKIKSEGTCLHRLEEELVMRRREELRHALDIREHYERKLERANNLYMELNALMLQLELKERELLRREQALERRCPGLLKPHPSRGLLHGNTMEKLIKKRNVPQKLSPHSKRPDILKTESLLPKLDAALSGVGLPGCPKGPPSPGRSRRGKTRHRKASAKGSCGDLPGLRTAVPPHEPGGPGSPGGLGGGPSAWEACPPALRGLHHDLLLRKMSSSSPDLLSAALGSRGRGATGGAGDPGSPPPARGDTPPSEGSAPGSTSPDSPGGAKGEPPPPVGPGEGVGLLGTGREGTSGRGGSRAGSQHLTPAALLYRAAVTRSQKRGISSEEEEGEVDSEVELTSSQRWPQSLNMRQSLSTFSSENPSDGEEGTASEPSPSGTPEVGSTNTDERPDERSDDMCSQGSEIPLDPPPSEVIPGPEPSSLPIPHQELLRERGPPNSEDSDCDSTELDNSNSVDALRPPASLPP

[2] = tested on: human MDR1; assay: Permeability across apical to basolateral side in MDCK cells transfected with human MDR1 at 5 uM by LC-MS/MS analysis; settings: dog
[3] = molecular target: T1, Mitogen-activated protein kinase kinase kinase 12; assay: Inhibition of Dox inducible human DLK transfected in HEK293 cells assessed as reduction in JNK phosphorylation incubated for 5.5 hrs measured by Hoechst 33342 staining based imaging analysis; assay type: cell-based
[4] = tested on: human MDR1; assay: Efflux ratio of permeability across basolateral to apical over apical to basolateral side in MDCK cells transfected with human MDR1 at 5 uM by LC-MS/MS analysis; settings: dog

Row | SMILES | Ki [1] [nM] | Papp A→B at 5 µM [2] [×10⁻⁶ cm/s] | IC50 [3] [nM] | efflux ratio at 5 µM [4]
1 | N#Cc1ccnc(Nc2cn(C3CCN(C4COC4)CC3)c(C3CCCC3)n2)c1 | > 1600 | – | – | –
2 | N#Cc1ccnc(Nc2nc(C3CC3)c(C3CCN(C4COC4)CC3)s2)c1 | 569 | – | 8600 | –
3 | CC(C)n1nc(Nc2ccc(C#N)cn2)cc1C1CCNCC1 | > 1600 | – | – | –
4 | N#Cc1ccnc(Nc2cc(C3CCN(C4COC4)CC3)n(C3CCOCC3)n2)c1 | 593 | 1.7 | – | 15
5 | N#Cc1ccnc(Nc2cc(C3CCN(C4COC4)CC3)n(C3CCOC3)n2)c1 (racemic) | 378 | 1.9 | – | 7.6
6 | CC(C)n1nc(Nc2cc(C#N)ccn2)cc1C1CCNCC1 | 160 | – | – | –
7 | CC(C)n1nc(Nc2ccc(C(F)(F)F)cn2)cc1C1CCNCC1 | > 1600 | – | – | –

Stronger by Ki [1], values ahead:

Row | Ki [1] [nM] | Papp A→B at 5 µM [2] [×10⁻⁶ cm/s] | IC50 [3] [nM] | efflux ratio at 5 µM [4] | SMILES
8 | 25 | 5.6 | 632 | 3.7 | N#Cc1ccnc(Nc2cc(C3CCN(C4COC4)C3)n(C3CCCC3)n2)c1 (racemic)
9 | 145 | 0.5 | – | 36 | CC(C)n1nc(Nc2cc(C(F)(F)F)ccn2)cc1C1CCNCC1
10 | 48 | 4.9 | 459 | 3.3 | N#Cc1ccnc(Nc2cc(C3CN(C4COC4)C3)n(C3CCCC3)n2)c1
11 | 133 | 1.8 | 1400 | – | N#Cc1ccnc(Nc2cc(C3CCN(C4COC4)CC3)n(CC3CCC3)n2)c1
12 | 54 | 2.7 | 698 | 1 | N#Cc1ccnc(Nc2cc(C3CCOC3)n(C3CCCC3)n2)c1 (racemic)
13 | 48 | 4.2 | 721 | 5.8 | N#Cc1ccnc(Nc2cc(C3CCN(C4COC4)CC3)n(C3CCC(F)(F)C3)n2)c1 (racemic)
